Experimental data taken from ChEMBL document CHEMBL1147149, “Ecdysteroids from Serratula wolffii roots” (2007).

What follows are compounds tested on Acyrthosiphon pisum (assay: Toxicity against larvae of orally dosed Acyrthosiphon pisum Harris).
Assay type: functional

Question: With `CC(C)(O)CC[C@@H](O)[C@](C)(O)[C@H]1CC[C@@]2(O)C3=CC(=O)[C@@H]4C[C@@H](O)[C@@H](O)C[C@]4(C)[C@H]3CC[C@]12C` [20-HYDROXYECDYSONE] as the compound, how does the LC50 read?
Answer: 1.07 ppm

Question: `C/C(=C\CCC(C)(C)O)[C@H]1CC[C@@]2(O)C3=CC(=O)[C@@H]4C[C@@H](O)[C@@H](O)C[C@]4(C)C3CC[C@]12C` (stereo partly drawn) was tested. Which LC50 did it give?
Answer: >100 ppm

Question: With `C/C(=C\CCC(C)(C)O)[C@H]1CC[C@@]2(O)C3=CC(=O)[C@@H]4C[C@@H](O)[C@@H](O)[C@@H](O)[C@]4(C)C3CC[C@]12C` (stereo partly drawn) as the compound, how does the LC50 read?
Answer: 48.5 ppm
